This is an account of results in patent US10246432B2, “4-(3-cyanophenyl)-6-pyridinylpyrimidine mGlu5 modulators” (Heptares Therapeutics Limited, priority 2013, dated 2019).

Assay [1] concerns the target hippocampal mGlu5 receptors (Rattus norvegicus (Rat), UniProt P31424). Briefly: Ex vivo mGlu5 receptor occupancy. Type of assay: in vivo. Conditions: Sprague Dawley rats, 1-10 mg/kg po, one hour post-dose, hippocampal CA3 sections, [3H]-M-MPEP autoradiography, read-out: estimated ED50 (receptor occupancy). On the procedure: Ex Vivo mGlu5 Receptor Occupancy
One hour post-dose, animals were sacrificed and whole brains removed, rinsed and blot dried. A coronal block was cut containing the hippocampus and divided along the mid-line and rapidly frozen in isopentane for sectioning and autoradiography. Coronal half-brain sections were cut 20 μm thick, approximately 4 mm posterior to the bregma, to incorporate the hippocampal CA3 region. Three adjacent sections were mounted onto slides and incubated with 2 nM [^3H]-M-MPEP (total binding) or 2 nM [^3H]-M-MPEP and 10 μM fenobam (non-specific binding, Tocris bioscience, catalogue number 2386) for 10 min at room temperature. Binding was terminated by aspiration and washing with ice-cold assay buffer (4×5 min) and sections allowed to air dry. Levels of bound radioactivity in the sections were determined using a beta imager over a 16 h period. Occupancy was determined as mean specific binding with the vehicle treated control taken as 100%.

A further assay deals with human mGlu5 receptor (Homo sapiens (Human), UniProt P41594). Briefly: [3H]-M-MPEP radioligand binding assay. Conditions: competition with [3H]-M-MPEP, membranes of HEK293 cells transfected with human mGlu5. On the procedure: Biological Methods Membrane Preparation
Sequence of human mGlu5 receptor (P41594 21-1212): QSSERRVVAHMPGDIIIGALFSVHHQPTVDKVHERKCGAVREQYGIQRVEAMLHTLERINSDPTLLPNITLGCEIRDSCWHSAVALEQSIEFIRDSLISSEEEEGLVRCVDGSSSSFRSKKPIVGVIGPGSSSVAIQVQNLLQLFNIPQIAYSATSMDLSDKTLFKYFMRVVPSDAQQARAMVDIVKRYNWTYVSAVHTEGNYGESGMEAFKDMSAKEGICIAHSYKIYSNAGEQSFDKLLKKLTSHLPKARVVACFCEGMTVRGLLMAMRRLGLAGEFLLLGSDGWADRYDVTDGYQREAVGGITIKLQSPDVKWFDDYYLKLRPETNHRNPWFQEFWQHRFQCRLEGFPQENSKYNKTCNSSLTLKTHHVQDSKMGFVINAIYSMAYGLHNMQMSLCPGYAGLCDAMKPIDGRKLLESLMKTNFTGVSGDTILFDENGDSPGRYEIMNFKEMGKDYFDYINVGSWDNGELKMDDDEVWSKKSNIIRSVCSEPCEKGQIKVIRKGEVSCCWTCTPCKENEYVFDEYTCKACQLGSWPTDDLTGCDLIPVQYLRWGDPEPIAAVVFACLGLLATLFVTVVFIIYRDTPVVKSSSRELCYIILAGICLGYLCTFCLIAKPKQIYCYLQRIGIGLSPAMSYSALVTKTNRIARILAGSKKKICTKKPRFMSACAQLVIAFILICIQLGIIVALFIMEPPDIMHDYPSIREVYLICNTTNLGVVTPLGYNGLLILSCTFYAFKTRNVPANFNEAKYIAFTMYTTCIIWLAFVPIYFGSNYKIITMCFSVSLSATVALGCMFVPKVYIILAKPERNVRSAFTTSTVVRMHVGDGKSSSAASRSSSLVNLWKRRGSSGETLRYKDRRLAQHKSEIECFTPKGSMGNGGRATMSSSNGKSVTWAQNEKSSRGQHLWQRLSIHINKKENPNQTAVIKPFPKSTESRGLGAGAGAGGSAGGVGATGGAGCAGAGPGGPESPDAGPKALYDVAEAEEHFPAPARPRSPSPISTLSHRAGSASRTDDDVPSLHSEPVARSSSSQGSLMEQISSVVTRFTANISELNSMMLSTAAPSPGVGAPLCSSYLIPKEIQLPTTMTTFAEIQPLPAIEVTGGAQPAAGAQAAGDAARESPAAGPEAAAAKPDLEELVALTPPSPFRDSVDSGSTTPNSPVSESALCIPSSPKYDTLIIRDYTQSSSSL
cDNA encoding the human mGlu5 receptor was transfected into HEK293 cells using the transfection reagent Genejuice (Novagen). Forty-eight hours after transfection, cells were harvested and washed twice with ice cold phosphate-buffered saline. The pellet was re-suspended in ice-cold buffer containing 20 mM Tris-HCl, pH 7.4, 1 mM EDTA and homogenised with an Ultraturax for 30 s at maximum speed. The suspension was centrifuged (800×g for 5 min at 4° C.) and supernatant collected. Supernatant was centrifuged (40,000×g for 30 min at 4° C.). The resulting pellet was re-suspended and frozen at −80° C. before use. Protein concentration was determined using the BCA protein assay method (Merck Chemicals Ltd).
[^3H]-M-MPEP Radioligand Binding Assay
After thawing, membrane homogenates were re-suspended in the binding buffer (50 mM HEPES pH 7.5, 150 mM NaCl) to a final assay concentration of 2.5 μg protein per well. […] At the end of the incubation, membranes were filtered onto a 96-well GF/B filter pre-incubated with 0.1% polyethylenimine, with a Tomtec cell harvester and washed 5 times with 0.5 mL distilled water. Non-specific binding (NSB) was measured in the presence of 0.1 mM MPEP hydrochloride (Tocris bioscience, catalogue number 1212). Radioactivity on the filter was counted (1 min) on a microbeta counter after addition of 50 μL of scintillation fluid. […] IC50 values were derived from the inhibition curve and the equilibrium dissociation constant (Ki) values were calculated using the Cheng-Prussoff equation.

The test system of the next assay is Male CD-1 mice. Briefly: In vivo efficacy test - mouse marble burying. As to conditions: 10 and 30 mg/kg po versus vehicle group, dosed 30 min prior to test, one-way ANOVA with Dunnett's post-hoc test. From the text: In Vivo Efficacy Test—Marble Burying

Sequence of hippocampal mGlu5 receptors (P31424 21-1203): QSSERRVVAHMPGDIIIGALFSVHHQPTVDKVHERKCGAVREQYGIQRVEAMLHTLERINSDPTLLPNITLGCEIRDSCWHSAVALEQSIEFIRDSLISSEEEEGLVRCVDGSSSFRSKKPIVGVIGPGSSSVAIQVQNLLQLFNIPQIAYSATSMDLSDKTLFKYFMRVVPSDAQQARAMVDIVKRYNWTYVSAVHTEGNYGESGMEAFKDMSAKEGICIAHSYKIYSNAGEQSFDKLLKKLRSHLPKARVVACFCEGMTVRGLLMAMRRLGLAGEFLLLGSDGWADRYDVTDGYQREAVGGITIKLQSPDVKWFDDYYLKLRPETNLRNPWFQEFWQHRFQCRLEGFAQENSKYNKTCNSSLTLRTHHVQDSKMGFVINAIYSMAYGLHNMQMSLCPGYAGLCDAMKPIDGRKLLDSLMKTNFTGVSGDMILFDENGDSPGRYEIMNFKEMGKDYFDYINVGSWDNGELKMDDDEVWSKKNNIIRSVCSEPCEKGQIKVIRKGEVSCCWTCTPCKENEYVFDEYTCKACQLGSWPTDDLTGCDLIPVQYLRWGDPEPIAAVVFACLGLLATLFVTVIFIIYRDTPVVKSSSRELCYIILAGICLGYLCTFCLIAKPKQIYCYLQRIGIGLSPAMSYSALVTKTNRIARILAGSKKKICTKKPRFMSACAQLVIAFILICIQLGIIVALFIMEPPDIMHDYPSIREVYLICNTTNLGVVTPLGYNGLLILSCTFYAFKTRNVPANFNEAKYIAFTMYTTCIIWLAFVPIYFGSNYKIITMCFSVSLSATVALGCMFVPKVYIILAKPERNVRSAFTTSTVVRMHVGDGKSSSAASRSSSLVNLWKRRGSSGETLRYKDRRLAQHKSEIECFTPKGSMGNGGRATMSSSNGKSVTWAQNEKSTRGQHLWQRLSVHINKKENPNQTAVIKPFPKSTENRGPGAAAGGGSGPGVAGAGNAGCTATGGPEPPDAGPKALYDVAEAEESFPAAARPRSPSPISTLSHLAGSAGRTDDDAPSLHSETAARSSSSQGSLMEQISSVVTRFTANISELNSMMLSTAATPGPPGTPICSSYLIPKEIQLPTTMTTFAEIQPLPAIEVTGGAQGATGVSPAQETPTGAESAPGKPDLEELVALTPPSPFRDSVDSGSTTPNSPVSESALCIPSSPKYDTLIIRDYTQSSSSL

For `N#Cc1cc(Cl)cc(-c2cc(-c3ccccn3)ncn2)c1` [Example 2, 3-chloro-5-[6-(pyridin-2-yl)pyrimidin-4-yl]benzonitrile], in assay [1], the ED50 – broadly, the dose at which the effect has come halfway, by size or by number of responders – was 2.8 mg/kg.
Turning to `Cc1cc(C#N)cc(-c2cc(-c3ccccn3)ncn2)c1` [Example 4, 3-methyl-5-[6-(pyridin-2-yl)pyrimidin-4-yl]benzonitrile], at human mGlu5 receptor, the pKi avg was 8.56.
Take `N#Cc1cc(Cl)cc(-c2cc(-c3ccncn3)ncn2)c1` [Example 6, 3-(4,4′-bipyrimidin-6-yl)-5-chlorobenzonitrile]: the pKi avg on human mGlu5 receptor worked out at 8.27.
The same measure, in the same setting: in the case of `N#Cc1cc(Cl)c(F)c(-c2cc(-n3cccn3)ccn2)c1` [Example 10, 3-chloro-4-fluoro-5-[4-(1H-pyrazol-1-yl)pyridin-2-yl]benzonitrile] it was 8.37; in that of `N#Cc1cc(Cl)c(F)c(-c2ccnc(-n3cccn3)c2)c1` [Example 11, 3-chloro-4-fluoro-5-[2-(1H-pyrazol-1-yl)pyridin-4-yl]benzonitrile], 8.16.
The same measure, in the same setting: in the case of `N#Cc1cc(Cl)c(F)c(-c2cc(-n3cc(F)cn3)ncn2)c1` [Example 12, 3-chloro-4-fluoro-5-[6-(4-fluoro-1H-pyrazol-1-yl)pyrimidin-4-yl]benzonitrile] it was 8.00; in that of `N#Cc1cc(CF)cc(-c2cc(-n3cccn3)ncn2)c1` [Example 16, 3-(fluoromethyl)-5-[6-(1H-pyrazol-1-yl)pyrimidin-4-yl]benzonitrile], 8.17.
Regarding `N#Cc1cc(Cl)cc(-c2cc(-c3ccc(F)cn3)ncn2)c1` [Example 17, 3-chloro-5-[6-(5-fluoropyridin-2-yl)pyrimidin-4-yl]benzonitrile], in the assay with Male CD-1 mice, the “number of marbles buried” value is “statistically significant decrease”. In assay [1], the ED50 is 0.3 mg/kg.
Consider `N#Cc1cc(C#N)cc(-c2cc(-c3ccc(F)cn3)ncn2)c1` [Example 18, 5-[6-(5-fluoropyridin-2-yl)pyrimidin-4-yl]benzene-1,3-dicarbonitrile], for which, in assay [1], the 50% effective dose (ED50) is 2.9 mg/kg.
In the case of `N#Cc1cc(C#N)cc(-c2cc(-c3ccccn3)ncn2)c1` [Example 21, 5-[6-(pyridin-2-yl)pyrimidin-4-yl]benzene-1,3-dicarbonitrile], the pKi avg at human mGlu5 receptor came out at 7.98.
For `Cc1ccc(-c2cc(-c3cc(C)cc(C#N)c3)ncn2)nc1` [Example 23, 3-methyl-5-[6-(5-methylpyridin-2-yl)pyrimidin-4-yl]benzonitrile], the pKi avg at human mGlu5 receptor amounted to 8.67.
`COCc1cc(C#N)cc(-c2cc(-c3ccc(F)cn3)ncn2)c1` [Example 24, 3-[6-(5-fluoropyridin-2-yl)pyrimidin-4-yl]-5-(methoxymethyl)benzonitrile]: the pKi avg on human mGlu5 receptor was 8.57.
Same read-out and setting: in the case of `COc1cc(C#N)cc(-c2cc(-c3ccc(F)cn3)ncn2)c1` [Example 25, 3-[6-(5-fluoropyridin-2-yl)pyrimidin-4-yl]-5-methoxybenzonitrile] it was 8.37.
